Assay results as given in article PMC10541198, “Specific quinone reductase 2 inhibitors reduce metabolic burden and reverse Alzheimer’s disease phenotype in mice” (The Journal of Clinical Investigation, 2023).
“And” between values parts separate entries of the source, which are not always exact repeats. Equal values may be shown once.

Tests used:
[1] = tested on: eIF2α; assay: Immunoblot of total and phosphorylated eIF2α 3 hours after CA1 microinjection; type: in vivo, mouse
Experimental: In order to evaluate the efficacy of some of the leading QR2is in vivo, we carried out double-blind experiments using 2 different modalities (Supplemental Methods), measuring memory that is dependent on different brain areas. First, cortical memory was tested using incidental novel taste learning (see Methods), in which an unfamiliar, but palatable and safe, taste is given for the first time, and the memory for this newly learned taste is then assessed 2 days later. This is done by measuring the volume of the taste consumed upon subsequent exposure to it ([32]) (Figure 4A). […] Next, hippocampal-dependent learning was evaluated using delay fear conditioning (DFC; see Methods) ([33]). Mice were cannulated to the CA1 region of the hippocampus and were microinjected with YB-537 (1 μL of 5 μM, Figure 4, D and H) or vehicle. […] In order to evaluate any possible effect of acute QR2i microinjection on metabolic stress in the mouse brain, ISR activation was measured by quantifying total and phosphorylated eukaryotic initiation factor 2 α (eIF2α) levels (Supplemental Figure 3A) and lipid peroxidation product, 4-hydroxynonenal (4-HNE; Supplemental Figure 3B), by immunoblot 3 hours after the injection. […]

[2] = tested on: QR2; assay: Immunoblot of QR2 in HCT116 cells after 4-day treatment; type: cell-based, human; details: 2 μM, 4 days; for QR2 expression, mean ± SEM (vehicle = 1): HCT116, n=6
Experimental: To establish direct target engagement and cell membrane permeability, a cellular thermal shift assay (CETSA) was carried out, using leading QR2is YB’s-537, 800, and 808. Following a 1 hour preincubation with 5 μM of the QR2is or vehicle, thermal aggregation curves (Taggs) of QR2 expressed in HEK293T were measured in increasing temperatures. All QR2is increased QR2 thermal stability compared with vehicle (Supplemental Figure 2A). Based on the Tagg curves we selected 73°C for isothermal dose-response fingerprint (IDTRF) experiments (Supplemental Figure 2B). The ITDRF allowed the relative quantification of the binding of each of the QR2is to QR2, measured as the EC50 (Figure 3A). […] We evaluated the safety of the QR2is using cell toxicity and viability assays. […] Cell viability was assessed by XTT assay in HEK239T cells, using a dose response, with 3- or 24-hour incubations of the leading QR2is. No sign of toxicity was seen (Figure 3C). Next, we wanted to assess if, similar to QR2 KO, QR2is can reduce cellular ROS in HCT116 cells and see whether any observable effect is occluded in QR2Δ cells. […] We then assessed WT HCT116 cells by immunoblot (Supplemental Figure 2, C and D), after being treated with YB-800 (2 μM) for 4 consecutive days.
H2DCFDA ROS assay was carried out according to established protocols, with some adjustment (Supplemental Methods) ([6]). Cell toxicity was measured via ATP depletion (CellTiter Glo, Promega) in THLE-2 cells (ATCC, CRL-2706), following 72 hours of exposure to the test compounds, and cell viability was assessed using XTT assay (Biological Industries) according to manufacturers protocols. […]
(Ser51) eIF2α (1:1000, Cell Signaling, 9721), diluted in blocking buffer. The ne xt day, the m em br anes w e re washed three times in TBST and incubated at room temperature (RT) for 1 h with 1:10,000 secondary antibodies conjugated to horseradish peroxidase, and following a further t hr e e times washes in TBSTwere immunoblotted with Westar Supernova (Cyanagen), imaged using a charge-coupled device camera and analyzed using Quantity One software (Bio-Rad). […]

SMILES | eIF2α phosphorylation levels ([1]; 3 hours after microinjection in the mouse hippocampus) | eIF2α phosphorylation, immunoblot (individual mice) ([1]; 3 hours after microinjection, Sup. Fig. 3A) | QR2 expression (replicates) ([2]; HCT116) | QR2 expression, mean ± SEM (vehicle = 1) [2] | QR2 expression, mean ± SEM (vehicle = 1) ([2]; listed as NG800)
Cc1ccc(-c2cn3cccc(C)c3n2)cc1S(=O)(=O)N1CCNCC1 [YB-537] | insignificant reduction | 1.423 and 1.158 and 1.034 and 0.527 and 1.086 and 1.215 and 0.836 |  |  | 
Cc1ccc(-c2cn3cccc(C)c3n2)cc1S(=O)(=O)N1CCC(C)CC1 [YB-800] |  |  | 1.514 and 1.125 and 1.62 and 0.8886 and 0.7618 and 1.183 | unchanged | 1.182 ± 0.137
